Data as given in paper PMC9011347, “Small-Molecule Inhibitors Targeting Lipolysis in Human Adipocytes” (Journal of the American Chemical Society, 2022).

Tested on: HepG2^AKO cells
Test: Seahorse cellular respiration (OCR) in ATGL knockout cells
Assay type: cell-based, human
Conditions: NG-497 40 μM, galactose medium
Description: (a) HepG2 cells were treated with NG-497 (40 μM) or DMSO as control and oxygen consumption rate (OCR) was determined in Seahorse growth medium supplemented with glucose (25 mM) using the SeaHorse XF96 extracellular flux analyzer. OCR was determined after subsequent addition of 1 μM Oligomycin (ATP-synthase inhibitor), 1 μM FCCP (uncoupler), and 1 μM antimycin/rotenone (electron transport chain inhibitors). (b) Statistical analysis of basal respiration (BR), maximal respiration (MR), proton leak (PL), ATP production (ATPP), spare respiratory capacity (SRC), and nonmitochondrial oxygen consumption (NMOC) of control and NG-497-treated cells. (c) Extracellular acidification rate (ECAR) and (d) OCR of HepG2 cells were determined in Seahorse growth medium supplemented with glucose (25 mM) or galactose (10 mM). […] Growth of cells expressing (HepG2^control) or lacking functional ATGL (HepG2^AKO) was determined using a BioRad cell analyzer. ATGL expression was analyzed by Western blotting analysis using an anti-ATGL antibody and GAPDH as a loading control (inset). (h) Acylglycerol content of HepG2^control and HepG2^AKO cells was determined by a commercial kit (TG Infinity reagent, Thermo Fisher Scientific). […] Statistical significance was determined via Student’s t test (*p < 0.05; **p < 0.01; ***p < 0.001) or ANOVA followed by Bonferroni post hoc test (^#p < 0.05; ^##p < 0.01; ^###p < 0.001). […]

CCOc1ccc(-c2cc(OC)cc(C(=O)OC(C)C)n2)cc1 [NG-497]
effect on respiration: no effect on respiration
